Assay results: PubChem BioAssay AID1259407 (Chemical Carcinogenesis Research Information System (CCRIS), 2018)
Active and inactive are the calls of the source. How the calls were made is not given here.

Test system: CCRIS mutagenicity, Ames/micronucleus/aberration tests
Experiment: CCRIS mutagenicity studies
[1] = Test System: AMES SALMONELLA TYPHIMURIUM, Strain/Indicator: TA100, Metabolic Activation: NONE, Method: STANDARD PLATE

Measured: mutagenic call

C=CC1CC2C=CC1C2 (stereo not drawn)
inactive: Test System: AMES SALMONELLA TYPHIMURIUM, Strain/Indicator: TA98, Metabolic Activation: NONE, Method: PREINCUBATION inactive; negative | Test System: AMES SALMONELLA TYPHIMURIUM, Strain/Indicator: TA98, Metabolic Activation: RAT LIVER S-9, AROCLOR 1254, Method: PREINCUBATION inactive; negative | Test System: AMES SALMONELLA TYPHIMURIUM, Strain/Indicator: TA100, Metabolic Activation: NONE, Method: PREINCUBATION inactive; negative | Test System: AMES SALMONELLA TYPHIMURIUM, Strain/Indicator: TA100, Metabolic Activation: RAT LIVER S-9, AROCLOR 1254, Method: PREINCUBATION inactive; negative | Test System: AMES SALMONELLA TYPHIMURIUM, Strain/Indicator: TA1535, Metabolic Activation: NONE, Method: PREINCUBATION inactive; negative | Test System: AMES SALMONELLA TYPHIMURIUM, Strain/Indicator: TA1535, Metabolic Activation: RAT LIVER S-9, AROCLOR 1254, Method: PREINCUBATION inactive; negative | Test System: AMES SALMONELLA TYPHIMURIUM, Strain/Indicator: TA1537, Metabolic Activation: NONE, Method: PREINCUBATION inactive; negative | Test System: AMES SALMONELLA TYPHIMURIUM, Strain/Indicator: TA1537, Metabolic Activation: RAT LIVER S-9, AROCLOR 1254, Method: PREINCUBATION inactive; negative | Test System: AMES SALMONELLA TYPHIMURIUM, Strain/Indicator: TA1538, Metabolic Activation: NONE, Method: PREINCUBATION inactive; negative | Test System: AMES SALMONELLA TYPHIMURIUM, Strain/Indicator: TA1538, Metabolic Activation: RAT LIVER S-9, AROCLOR 1254, Method: PREINCUBATION inactive; negative | Test System: CHINESE HAMSTER OVARY, Strain/Indicator: CHO-K1-BH4 (HGPRT)/6-THIOGUANINE, Metabolic Activation: NONE inactive; negative | Test System: CHINESE HAMSTER OVARY, Strain/Indicator: CHO-K1-BH4 (HGPRT)/6-THIOGUANINE, Metabolic Activation: RAT LIVER S-9, AROCLOR 1254 inactive; negative

C=CCSS(=O)CC=C (stereo not drawn)
inactive: End Point: IN VITRO CHROMOSOMAL ABERRATIONS, Test System: HUMAN PERIPHERAL BLOOD LYMPHOCYTES, Metabolic Activation: NONE inactive; negative | End Point: IN VITRO CHROMOSOMAL ABERRATIONS, Test System: HUMAN PERIPHERAL BLOOD LYMPHOCYTES, Metabolic Activation: RAT, LIVER, S-9, PHENOBARBITONE inactive; negative

C=C1C[C@@]23CC[C@H]4[C@@](C)(CCC[C@@]4(C)C(=O)O)[C@@H]2CC[C@]1(O[C@@H]1O[C@H](CO)[C@@H](O)[C@H](O)[C@H]1O)C3
active: Test System: AMES SALMONELLA TYPHIMURIUM, Strain/Indicator: TM677, Metabolic Activation: RAT, LIVER, S-9, AROCLOR 1254, Method: PREINCUBATION active; positive

c1ccc2c(c1)-c1cccc3cccc-2c13
inactive: Test System: AMES SALMONELLA TYPHIMURIUM, Strain/Indicator: TA97, Metabolic Activation: NONE, Method: STANDARD PLATE inactive; negative | Test System: AMES SALMONELLA TYPHIMURIUM, Strain/Indicator: TA98, Metabolic Activation: NONE, Method: STANDARD PLATE inactive; negative | Test System: AMES SALMONELLA TYPHIMURIUM, Strain/Indicator: TA98, Metabolic Activation: RAT, LIVER, S-9, AROCLOR 1254 (4%), Method: STANDARD PLATE inactive; negative | [1] inactive; negative | Test System: AMES SALMONELLA TYPHIMURIUM, Strain/Indicator: TA102, Metabolic Activation: RAT, LIVER, S-9, AROCLOR 1254, Method: TAPED-PLATE inactive; negative | Test System: AMES SALMONELLA TYPHIMURIUM, Strain/Indicator: TA1535, Metabolic Activation: RAT, LIVER, S-9, AROCLOR 1254, Method: TAPED-PLATE inactive; negative | Test System: UDS RAT HEPATOCYTES, Strain/Indicator: THY INCORP, Metabolic Activation: NONE, Method: IN VIVO-IN VITRO inactive; negative
active: Test System: AMES SALMONELLA TYPHIMURIUM, Strain/Indicator: TA97, Metabolic Activation: RAT, LIVER, S-9, AROCLOR 1254, Method: TAPED-PLATE active; positive | Test System: AMES SALMONELLA TYPHIMURIUM, Strain/Indicator: TA97, Metabolic Activation: RAT, LIVER, S-9, PCB, Method: STANDARD PLATE active; positive | Test System: AMES SALMONELLA TYPHIMURIUM, Strain/Indicator: TA98, Metabolic Activation: RAT, LIVER, S-9, AROCLOR 1254, Method: FLUCTUATION active; positive | Test System: AMES SALMONELLA TYPHIMURIUM, Strain/Indicator: TA98, Metabolic Activation: RAT, LIVER, S-9, AROCLOR 1254, Method: TAPED-PLATE active; positive | Test System: AMES SALMONELLA TYPHIMURIUM, Strain/Indicator: TA98, Metabolic Activation: RAT, LIVER, S-9, PCB, Method: STANDARD PLATE active; positive | Test System: AMES SALMONELLA TYPHIMURIUM, Strain/Indicator: TA100, Metabolic Activation: RAT, LIVER, S-9, AROCLOR 1254, Method: FLUCTUATION active; positive | Test System: AMES SALMONELLA TYPHIMURIUM, Strain/Indicator: TA100, Metabolic Activation: RAT, LIVER, S-9, AROCLOR 1254, Method: TAPED-PLATE active; positive | Test System: AMES SALMONELLA TYPHIMURIUM, Strain/Indicator: TA100, Metabolic Activation: RAT, LIVER, S-9, PCB, Method: STANDARD PLATE active; positive | Test System: AMES SALMONELLA TYPHIMURIUM, Strain/Indicator: TA1537, Metabolic Activation: RAT, LIVER, S-9, AROCLOR 1254, Method: TAPED-PLATE active; positive

CC1(C)CC(O)CC(C)(C)N1[O]
active: [1] active; positive | Test System: Mouse lymphoma, Strain/Indicator: L5178Y (tk+/tk-), Metabolic Activation: None, Method: Suspension/plate active; positive | Test System: Mouse lymphoma, Strain/Indicator: L5178Y (tk+/tk-), Metabolic Activation: Rat, Liver, S-9, Aroclor 1254, Method: Suspension/plate active; positive
inactive: Test System: AMES SALMONELLA TYPHIMURIUM, Strain/Indicator: TA102, Metabolic Activation: NONE, Method: STANDARD PLATE inactive; negative | Test System: AMES SALMONELLA TYPHIMURIUM, Strain/Indicator: TA102, Metabolic Activation: XANTHINE OXIDASE, Method: STANDARD PLATE inactive; negative | Test System: AMES SALMONELLA TYPHIMURIUM, Strain/Indicator: TA104, Metabolic Activation: NONE, Method: STANDARD PLATE inactive; negative | Test System: AMES SALMONELLA TYPHIMURIUM, Strain/Indicator: TA104, Metabolic Activation: XANTHINE OXIDASE, Method: STANDARD PLATE inactive; negative
